{"source": "patent US20070298413A1", "about": "“Topoisomerase Modulators Assays” (AstraZeneca AB, priority 2003, published 2007)", "key": {"[1]": {"tested_on": "pRAS101, gyrA promoter linked to a lacZ gene", "assay": "microtiter plate β-galactosidase assay, pRAS101 positive control", "assay_type": "cell-based, E. coli", "settings": "nalidixic acid 200 μg/ml, 2 hours at 37° C.", "method": "The β-galactosidase assays were carried out in 96-well, flat bottom microtiter plates. Blue (lacZ^+) ampicillin-resistant colonies of all sizes and shades of blue were purified, inoculated into 200 μl media (L-broth containing 50 μg/ml ampicillin) and incubated overnight at 37° C. Cultures were then diluted 1:20 into fresh broth and incubated for 1.5 hours at 37° C. with shaking at 230 rpm to mid log phase. At this point half of each culture was transferred to a duplicate microtitre plate to which nalidixic acid had been added to give a final concentration of 200 μg/ml. Both plates were incubated at 37° C. for 2 hours to allow expression of the reporter gene that was then assayed. Before carrying out the β-galactosidase assay, absorbance WAS read automatically on the Molecular Devices Microplate Reader at 595 nm in order to measure the differences in the cell titers between control and treated cultures. 25 μl of β-galactosidase assay emulsion (prepared as follows: 5 mL ONPG (O-nitrophenyl-β-D-galactopyranodside) at 4 mg/ml, 5 mL 1× Z-buffer, 0.3 mL 1% SDS, 0.2 mL chloroform, 0.2 mL ether), was added to each well. The plates were read at 28° C. on a Molecular Devices Microplate Reader at 420 nm for 2 mins at 0.09 sec intervals. […]"}, "[2]": {"tested_on": "clone 19.4 (relaxation-stimulated promoter upstream of lacZ in pSB2)", "assay": "microtiter plate β-galactosidase assay, clone 19.4", "assay_type": "cell-based, E. coli", "settings": "nalidixic acid 200 μg/ml, 2 hours at 37° C., treated vs control culture", "excerpt": "The T4 terminator (T4 t) and lacZ gene were inserted into a plasmid expression vector pTB244 to create the construct pSB2. In this construct, the transcription of the lacZ gene, without a promoter, is prevented by the upstream T4 terminator, such that insertion of a promoter is necessary for lacZ expression. A random E. coli DNA library was constructed by inserting Escherichia coli chromosomal Sau3A fragments into the BamHI site of the screening vector pSB2, upstream of the promoter-less lacZ gene.\nThe library was transformed into the lacZ^− E. coli host strain MSD1011 (MM294 Δlac=E. coli K12 hsdR Δlac). […] Blue transformants were screened for the presence of relaxation-stimulated promoters using the microtiter plate β-galactosidase assay.\nThe β-galactosidase assays were carried out in 96-well, flat bottom microtiter plates. Blue (lacZ^+) ampicillin-resistant colonies of all sizes and shades of blue were purified, inoculated into 200 μl media (L-broth containing 50 μg/ml ampicillin) and incubated overnight at 37° C. […] Before carrying out the β-galactosidase assay, absorbance WAS read automatically on the Molecular Devices Microplate Reader at 595 nm in order to measure the differences in the cell titers between control and treated cultures. […] The plates were read at 28° C. on a Molecular Devices Microplate Reader at 420 nm for 2 mins at 0.09 sec intervals."}, "[3]": {"tested_on": "bacteria that carry a DNA relaxation-stimulated lacZ gene on a plasmid (pRAS101, 19.4, pSB2.his)", "assay": "plate lawn technique on X-Gal medium (blue ring)", "assay_type": "cell-based, E. coli", "settings": "spotted onto lawn of bacteria, overnight growth at 37° C.; clones pRAS101, 19.4 and pSB2.his similar", "excerpt": "The principle of the screen is based on the observation that if known gyrase inhibitors are spotted onto X-Gal medium containing bacteria that carry a DNA relaxation-stimulated lacZ gene on a plasmid, clear zones of inhibition surrounded by a blue ring are formed after overnight growth. The blue ring presumably forms at the drug concentration where optimum relaxation-stimulation of the reporter gene has occurred before the cells are killed.\nThe following three clones were used: a) clone pRAS101 containing the gyrA promoter linked to the β-galactosidase gene; b) clone 19.4 (found by method described in section 3.3); and c) clone pSB2.his containing the hisD promoter linked to the β-galactosidase gene.\nCultures were grown overnight and diluted 1:1000 in (melted) L-agar cooled to 45° C. containing 50 μg/mL Ap and 60 μg/mL X-Gal. The medium was poured into 15×150 mm petri dishes immediately. After it had solidified, known gyrase inhibitors were applied automatically onto the solid agar surface using a Tomtec Quadra 96 machine as follows: 20 μg nalidixic acid (Nx), 100 μg novobiocin (Novo), 2 μg ciprofloxacin (Cipro), 10 μg coumermycin (Cou), 2 μg cinoxacin (Cinox), 2 μg pefloxacin (Pef), 2 μg fleroxacin (Fle), 2 μg flumequine (Flu) and 2 μg norfloxacin (Nor). […]"}, "H. influenzae": {"tested_on": "H. influenzae", "assay": "minimum inhibitory concentration (MIC)", "assay_type": "cell-based", "settings": "Haemophilus influenzae"}}, "note": "Read-outs that look alike come from different tables or passages of the source.", "data": [{"smiles": "CCn1cc(C(=O)O)c(=O)c2ccc(C)nc21", "note": "[nalidixic acid]", "values": [{"measurement": "stimulation ratio (average)", "setting": "[1]", "value": 3.1, "unit": "fold"}, {"measurement": "relaxation stimulated transcription ratio", "setting": "[2]", "value": 6.1}]}, {"smiles": "O=C(N[C@H](CO)[C@H](O)c1ccc([N+](=O)[O-])cc1)C(Cl)Cl", "note": "[chloramphenicol]", "values": [{"measurement": "stimulation of the DNA relaxation-stimulated reporter gene (blue ring)", "setting": "[3]", "value": "little to no stimulation"}]}, {"smiles": "CO[C@@H]1[C@@H](OC(N)=O)[C@@H](O)[C@H](Oc2ccc3c(O)c(NC(=O)c4ccc(O)c(CC=C(C)C)c4)c(=O)oc3c2C)OC1(C)C", "note": "[novobiocin]", "values": [{"measurement": "MIC", "setting": "H. influenzae", "value": 0.125, "unit": "µg/mL"}]}, {"smiles": "CC1(C)S[C@@H]2[C@H](NC(=O)[C@H](N)c3ccccc3)C(=O)N2[C@H]1C(=O)O", "note": "[ampicillin]", "values": [{"measurement": "MIC", "setting": "H. influenzae; measured MIC against H. influenzae, read-out: MIC", "value": 0.125, "unit": "µg/mL"}]}]}
